US9988380B2, “Quorum sensing inhibitors” (priority 2013, dated 2018)
Where two headings read alike, the source gives them in different places.

Legend:
LasR = biological target: T1, LasR (Pseudomonas aeruginosa, UniProt P25084); assay: AHL competition assay between QSI and OdDHL in heterologous E. coli lasB-gfp(ASV) strain; assay type: cell-based, P. aeruginosa
T1 construct: expressed in transfected cells; host or cells: E. coli lasB-gfp(ASV) reporter strain
Experimental: E. coli Competition Assay between QSI compounds and OdDHL. The E. coli lasB-gfp(ASV) reporter strain was used for the competition assay, which was performed in a similar manner to the P. aeruginosa LasR inhibition assay. OdDHL and the QSI to be studied were added to the wells of a microtitre plate containing ABTGC media. Wells without OdDHL and/or QSI were included as controls. An overnight culture of E. coli lasB-gfp(ASV) strain, grown in LB medium at 37° C. with shaking, was diluted to an OD600 of 0.2, and 100 μl of bacterial suspension was added to each well of the microtitre plate. […] GFP and OD600 readings were obtained as described above for the P. aeruginosa LasR inhibition assay.
AHL Competition Assay Using the Heterologous E. coli lasB-gfp (ASV) strain. The five QSI candidates were tested for their specificity in inhibiting the LasR receptor by incubating these QSIs with the E. coli lasB-gfp (ASV) reporter strain. LasR is under the control of the Lac promoter and is constitutively expressed, and only LasR can activate gfp expression in this system.

rhlA-gfp(ASV) expression = assay: Inhibition of the Rhl QS system, rhlA-gfp(ASV) reporter in PAO1 wild-type and lasR mutant; assay type: cell-based, P. aeruginosa
Experimental: Inhibition of the Rhl and PQS QS systems in wild-type PAO1 and PAO1 lasR mutant. Wild-type P. aeruginosa PAO1 strains harboring either the rhlA-gfp(ASV) reporter or the pqsA-gfp(ASV) reporter, and a P. aeruginosa PAO1 lasR mutant harboring either the rhlA-gfp(ASV) reporter or the pqsA-gfp(ASV) reporter were used for this experiment (Refer to FIG. 11 for strain information). Overnight cultures of these four strains were diluted 100-fold in ABTGC media within 96-well microtitre plates to a final volume of 200 μL per well. Each of the five QSIs was added in triplicate to a final concentration of 50 μM. 0.5% DMSO was used as a negative control. The microtitre plate was incubated at 37° C. in a Tecan Infinite 200 Pro plate reader where GFP and OD600 readings were measured at 15 min intervals.
Effect of QSIs on Rhl and Pqs Quorum-Sensing Systems. In order to address the problem of the specificity of present compounds, the five identified QSI compounds were tested to see if they had any effect on the rhl and pqs systems. The five QSIs were tested against a PAO1 wild-type and a PAO1 lasR mutant harboring either the rhlA-gfp (ASV) bioreporter or the pqsA-gfp (ASV) bioreporter. The rhlA system is dependent on the RhlR/I system. By doing so, we were able to determine if a QSI is able to inhibit the other two QS systems (i.e. rhl and pqs) in a lasR-dependent/independent manner (FIG. 8).

[1] = system: P. aeruginosa PAO1 strain; assay: iTRAQ-based quantitative proteomic analysis; assay type: cell-based; details: 25 μM G1
Experimental: iTRAQ-Based Proteomics Analyses for G1. Isobaric tag for relative and absolute quantitation (iTRAQ)-based proteomic analysis was used to study the changes in protein expression of the P. aeruginosa PAO1 strain in response to the addition of 25 μM of G1. Proteomics experiments were performed at the Proteomic Core Facility of the Biological Research Center, School of Biological Sciences, Nanyang Technological University, Singapore. A full description of the proteomics workflow is given below.
Protein preparation and digestion. The P. aeruginosa PAO1 strain was grown in ABTG media. Sub-lethal concentrations of G1 (25 μM) were added to independent P. aeruginosa PAO1 cultures respectively. Cultures were grown in LB medium at 37° C. with shaking until late log phase (OD 600 nm=1.0) before harvesting. After harvesting, cell pellets were washed with 1×PBS and resuspended in 2 ml of lysis buffer containing 0.5M TEAB and 0.1M SDS. The cells were ruptured by sonication, and the cell debris was removed by centrifugation at 4° C. at 16000×g for 15 min. 200 μg of proteins from different growth conditions were dissolved in equal volume of sample buffer (Invitrogen) supplemented with 0.5% 2-mercaptoethanol and denatured by boiling at 95° C. for 5 min. 1D gel electrophoresis was carried out using 10% SDS-PAGE for in-gel digestion.
Proteins were first reduced using 5 mM Tris-(2-carboxyethyl)phosphine (TCEP) for 1 h at 60° C., followed by blocking of cysteine residues by 10 mM methyl methanethiosulfate (MMTS) for 30 min at room temperature in the dark. Trypsin was added at a ratio of 1:50 (trypsin/sample). It was then incubated at 37° C. overnight. The tryptic peptides were extracted by 50% ACN/5% Acetic Acid from gel for 3 times and were desalted using Sep-Pak C18 cartridges (Waters, Milford, Mass.) and dried in a SpeedVac (Thermo Electron, Waltham, Mass.). All chemicals were purchased from Sigma-Aldrich unless stated otherwise.
iTRAQ labeling. The iTRAQ labeling of the tryptic peptides was performed using 4-plex iTRAQ reagent kit (Applied Biosystems, Foster City, Calif.), according to the manufacturers protocol. 200 μg of peptides from each condition were individually labeled with respective isobaric tags: control sample with 114, and the G1 treated sample with 115. After 2 h incubation, the samples were quenched by water, desalted using C18 solid phase extraction cartridge, and then vacuum-centrifuged to dryness. […] The HPLC chromatograms were recorded at 280 nm and fractions were collected online using automated fraction collector. 20 fractions were collected and concentrated using vacuum centrifuge and reconstituted in 3% ACN with 0.1% formic acid for LC-MS/MS analysis.
LC-MS/MS. The peptides were separated and analyzed on a home-packed nanobore C18 column (15 cm×75 μm; Reprosil-Pur C18-AQ, 3 μm, Dr Maisch, Germany) with a Picofritnanospray tip (New Objectives, Woburn, Mass., USA) on a Tempo™ nano-MDLC system coupled with a QSTAR® Elite Hybrid LC-MS/MS system (Applied Biosystems). Peptides from each fraction were analyzed in triplicate by LC-MS/MS over a gradient of 90 min. The flow rate of the LC system was set to a constant 300 nl/min. Data acquisition in QSTAR Elite was set to positive ion mode using Analyst® QS 2.0 software (Applied Biosystems). MS data was acquired in positive ion mode with a mass range of 300-1600 m/z. Peptides with +2 to +4 charge states were selected for MS/MS. For each MS spectrum, the three most abundant peptides above a five-count threshold were selected for MS/MS and dynamically excluded for 30 s with a mass tolerance of 0.03 Da. Smart information-dependent acquisition was activated with automatic collision energy and automatic MS/MS accumulation. The fragment intensity multiplier was set to 20 and maximum accumulation time was 2 s.
Data analysis. […]

T1 sequence (P25084 whole entry): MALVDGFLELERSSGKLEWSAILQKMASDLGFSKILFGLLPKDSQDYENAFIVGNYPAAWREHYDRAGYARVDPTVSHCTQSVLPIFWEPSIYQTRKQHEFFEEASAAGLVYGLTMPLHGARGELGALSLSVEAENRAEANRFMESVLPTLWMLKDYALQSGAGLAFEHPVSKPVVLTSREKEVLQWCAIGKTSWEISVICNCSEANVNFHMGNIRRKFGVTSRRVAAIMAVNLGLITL

N=c1[nH]c(=O)c2nn[nH]c2[nH]1 [Compound G1, 5-imino-4,6-dihydro-3H-1,2,3-triazolo[5,4-d]pyrimidin-7-one]
relative fluorescence (GFP/OD600) (LasR; 320 nM OdDHL with 100 μM G1): 711.5
relative fluorescence (GFP/OD600) (LasR; 100 μM G1 and no OdDHL): 438.1
specific inhibition of LasR activity in the competition assay (LasR; E. coli lasB-gfp(ASV), with OdDHL): specifically inhibit LasR activity
concentration sufficient in inhibiting OdDHL-LasR induction of gfp expression (LasR; in the presence of 320 nM OdDHL): 1.56 µM
inhibition at 100 µM (LasR; read-out: inhibition as compared to the control without G1, 100 μM G1, in the absence of OdDHL): 30.2%
inhibition at 100 µM (LasR; read-out: inhibition as compared to the control without G1, 100 μM G1, in the presence of 320 nM OdDHL): 46.9%
inhibition of rhlA-gfp expression (rhlA-gfp(ASV) expression; PAO1 lasR mutant, 50 μM QSI): 46.5%
induction of the rhl QS system (rhlA-gfp(ASV) expression; data not shown): delay the induction of the rhl QS system
inhibition of rhlA-gfp expression (rhlA-gfp(ASV) expression; wild-type PAO1, 50 μM QSI): 23.1%
abundance of protease IV (PA4175), 115:114 [1]: 0.29
change in abundance of pyoverdine chromophore synthetase (pvdL; PA2424) [1]: −0.73 fold
change in abundance of pyoverdine synthetase D (pvdD; PA2399) [1]: −0.89 fold
elastase (lasB; PA3724) in the proteomics result [1]: not identified as down-regulated
number of proteins with abundance upregulated ([1]; 115:114 score at least 1.5): 19
number of proteins with abundance down-regulated ([1]; 115:114 score below 0.66): 27
number of proteins significantly affected ([1]; p-value (115:114) cut-off 0.05): 46
